How the values were obtained:
Assay type in all cases: cell-based
human TLR7 = molecular target: T1, human TLR7 (Homo sapiens, UniProt Q9NYK1); assay: TLR7 inhibition reporter assay (HEK-Blue SEAP reporter, gardiquimod stimulation); conditions: HEK-Blue cells overexpressing human TLR7, SEAP reporter, gardiquimod 7.5 μM, 22 hour incubation
T1 construct: host or cells: HEK-Blue cells
T1 sequence (Q9NYK1 27-1049): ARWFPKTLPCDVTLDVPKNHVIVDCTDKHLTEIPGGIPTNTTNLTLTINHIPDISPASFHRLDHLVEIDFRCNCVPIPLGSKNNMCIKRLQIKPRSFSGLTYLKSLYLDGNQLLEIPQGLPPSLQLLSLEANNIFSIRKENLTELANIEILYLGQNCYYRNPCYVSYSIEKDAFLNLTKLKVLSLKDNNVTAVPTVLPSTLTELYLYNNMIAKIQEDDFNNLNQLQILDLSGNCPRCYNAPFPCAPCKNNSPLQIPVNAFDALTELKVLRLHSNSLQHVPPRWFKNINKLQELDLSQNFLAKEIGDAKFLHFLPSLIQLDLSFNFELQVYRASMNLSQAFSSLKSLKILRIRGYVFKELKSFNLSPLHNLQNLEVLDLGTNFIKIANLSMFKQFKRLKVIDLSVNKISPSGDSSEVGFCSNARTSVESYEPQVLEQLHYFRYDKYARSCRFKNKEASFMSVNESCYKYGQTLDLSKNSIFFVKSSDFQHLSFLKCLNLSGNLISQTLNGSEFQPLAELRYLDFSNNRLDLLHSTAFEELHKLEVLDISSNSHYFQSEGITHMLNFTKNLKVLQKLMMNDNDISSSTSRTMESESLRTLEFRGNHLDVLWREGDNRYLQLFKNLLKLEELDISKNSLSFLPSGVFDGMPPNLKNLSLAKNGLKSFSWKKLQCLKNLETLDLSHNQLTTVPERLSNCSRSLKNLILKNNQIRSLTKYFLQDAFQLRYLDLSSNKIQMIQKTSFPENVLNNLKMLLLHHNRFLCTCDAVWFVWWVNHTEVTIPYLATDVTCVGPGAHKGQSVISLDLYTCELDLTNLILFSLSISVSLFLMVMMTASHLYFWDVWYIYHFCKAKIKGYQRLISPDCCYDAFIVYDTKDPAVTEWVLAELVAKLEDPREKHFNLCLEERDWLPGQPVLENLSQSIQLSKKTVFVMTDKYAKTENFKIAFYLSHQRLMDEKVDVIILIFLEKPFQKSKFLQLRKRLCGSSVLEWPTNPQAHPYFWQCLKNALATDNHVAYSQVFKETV
Outline: (§1)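 HEK-Blue cells overexpressing human TLR7, TLR8 or TLR9 carry a SEAP reporter driven by NF-κB/AP-1 sites. Compounds (0.05 nM–50 μM) were preincubated 30 min at room temperature, then cells were stimulated with gardiquimod 7.5 μM (TLR7), R848 15.9 μM (TLR8) or ODN2006 5 nM (TLR9) for 22 h at 37 °C.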

human TLR8 = molecular target: T2, human TLR8 (Homo sapiens, UniProt Q9NR97); assay: TLR8 inhibition reporter assay (HEK-Blue SEAP reporter, R848 stimulation); conditions: HEK-Blue cells overexpressing human TLR8, SEAP reporter, R848 15.9 μM, 22 hour incubation
T2 construct: host or cells: HEK-Blue cells
T2 sequence (Q9NR97 27-1041): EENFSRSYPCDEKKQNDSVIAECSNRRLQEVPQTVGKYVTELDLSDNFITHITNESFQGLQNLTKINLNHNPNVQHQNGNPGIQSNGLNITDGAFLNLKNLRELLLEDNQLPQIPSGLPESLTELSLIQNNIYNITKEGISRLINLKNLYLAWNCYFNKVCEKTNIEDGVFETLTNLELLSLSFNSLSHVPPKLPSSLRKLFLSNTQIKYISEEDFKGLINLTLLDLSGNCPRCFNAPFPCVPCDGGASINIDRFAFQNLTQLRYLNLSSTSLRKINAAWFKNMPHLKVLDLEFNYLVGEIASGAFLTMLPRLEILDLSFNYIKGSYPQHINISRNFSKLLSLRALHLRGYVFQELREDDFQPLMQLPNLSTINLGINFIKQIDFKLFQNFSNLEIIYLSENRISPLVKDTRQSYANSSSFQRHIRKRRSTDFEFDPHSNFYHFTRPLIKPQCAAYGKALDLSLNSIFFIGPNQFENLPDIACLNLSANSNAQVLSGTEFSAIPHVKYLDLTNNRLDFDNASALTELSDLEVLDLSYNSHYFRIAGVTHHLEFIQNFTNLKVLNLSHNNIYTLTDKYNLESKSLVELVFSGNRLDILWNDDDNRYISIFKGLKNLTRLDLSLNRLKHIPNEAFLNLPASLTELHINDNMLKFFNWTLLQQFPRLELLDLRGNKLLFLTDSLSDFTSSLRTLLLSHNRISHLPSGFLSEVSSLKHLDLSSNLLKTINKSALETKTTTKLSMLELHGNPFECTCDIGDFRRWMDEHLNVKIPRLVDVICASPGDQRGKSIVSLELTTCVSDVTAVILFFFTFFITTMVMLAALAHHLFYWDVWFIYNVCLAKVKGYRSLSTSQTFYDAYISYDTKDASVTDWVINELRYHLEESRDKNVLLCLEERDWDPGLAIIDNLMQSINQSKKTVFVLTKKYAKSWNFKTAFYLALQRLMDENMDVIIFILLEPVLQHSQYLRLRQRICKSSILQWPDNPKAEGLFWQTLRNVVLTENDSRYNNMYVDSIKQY
Outline: as §1

human TLR9 = molecular target: T3, human TLR9 (Homo sapiens, UniProt Q9NR96); assay: TLR9 inhibition reporter assay (HEK-Blue SEAP reporter, ODN2006 stimulation); conditions: HEK-Blue cells overexpressing human TLR9, SEAP reporter, ODN2006 5 nM, 22 hour incubation
T3 construct: host or cells: HEK-Blue cells
T3 sequence (Q9NR96 26-1032): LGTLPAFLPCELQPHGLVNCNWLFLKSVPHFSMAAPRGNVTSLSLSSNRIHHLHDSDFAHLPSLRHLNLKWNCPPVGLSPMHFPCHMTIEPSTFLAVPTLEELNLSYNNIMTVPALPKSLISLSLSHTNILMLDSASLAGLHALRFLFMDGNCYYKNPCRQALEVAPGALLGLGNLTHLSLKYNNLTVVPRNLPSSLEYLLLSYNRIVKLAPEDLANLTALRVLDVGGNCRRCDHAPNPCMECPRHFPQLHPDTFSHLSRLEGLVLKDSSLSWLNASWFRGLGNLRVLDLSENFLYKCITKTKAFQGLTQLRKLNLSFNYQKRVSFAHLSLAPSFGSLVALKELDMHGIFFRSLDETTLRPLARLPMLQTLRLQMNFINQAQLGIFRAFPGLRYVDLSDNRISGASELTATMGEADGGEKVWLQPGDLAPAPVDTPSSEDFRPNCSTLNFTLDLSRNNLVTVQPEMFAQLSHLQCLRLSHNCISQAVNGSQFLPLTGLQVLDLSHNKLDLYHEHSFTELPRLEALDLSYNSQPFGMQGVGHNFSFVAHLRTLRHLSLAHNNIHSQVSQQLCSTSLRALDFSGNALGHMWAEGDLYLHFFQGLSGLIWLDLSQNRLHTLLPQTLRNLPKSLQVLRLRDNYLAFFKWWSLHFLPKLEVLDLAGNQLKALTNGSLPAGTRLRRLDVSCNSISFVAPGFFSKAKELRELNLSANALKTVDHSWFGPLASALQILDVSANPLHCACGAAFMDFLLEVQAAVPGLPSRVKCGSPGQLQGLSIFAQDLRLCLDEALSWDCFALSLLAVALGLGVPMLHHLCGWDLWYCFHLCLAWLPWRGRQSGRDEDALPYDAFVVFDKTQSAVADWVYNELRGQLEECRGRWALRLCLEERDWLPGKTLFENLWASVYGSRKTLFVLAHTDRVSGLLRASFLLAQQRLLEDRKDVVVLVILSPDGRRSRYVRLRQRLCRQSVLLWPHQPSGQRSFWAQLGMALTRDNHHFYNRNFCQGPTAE
Outline: as §1

Structure (SMILES)	IC50 (human TLR7)	IC50 (human TLR8)	IC50 (human TLR9)
Cc1c(-c2[nH]c3ccc(C4CCN(CCC(F)(F)F)CC4)cc3c2C(C)C)cn(C)c(=O)c1Cl [Example 102, 3-chloro-5-(3-isopropyl-5-(1-(3,3,3-trifluoropropyl)piperidin-4-yl)-1H-indol-2-yl)-1,4-dimethylpyridin-2(1H)-one]	33.2 nM	32.4 nM	≥ 50000 nM
Cc1cc(-c2[nH]c3ccc(C4CCN(C5CCS(=O)(=O)C5)CC4)cc3c2C(C)C)cn(C)c1=O (stereo not drawn) [Example 81, 5-(5-(1-(1,1-dioxidotetrahydrothiophen-3-yl)piperidin-4-yl)-3-isopropyl-1H-indol-2-yl)-1,3-dimethylpyridin-2(1H)-one]	8.8 nM	20.3 nM	≥ 50000 nM
Cc1cc(-c2[nH]c3ccc(C4CCN(CC5CC5(F)F)CC4)cc3c2C(C)C)cn(C)c1=O (stereo not drawn) [Example 83, 5-(5-(1-((2,2-difluorocyclopropyl)methyl)piperidin-4-yl)-3-isopropyl-1H-indol-2-yl)-1,3-dimethylpyridin-2(1H)-one]	3.9 nM	1.2 nM	7140 nM
CC(C)c1c(-c2ccc(=O)n(C(C)C)c2)[nH]c2ccc(C3CCNCC3)cc12 [Example 16, 1-isopropyl-5-(3-isopropyl-5-(piperidin-4-yl)-1H-indol-2-yl)pyridin-2(1H)-one]	302 nM	173 nM	914 nM
Cc1c(-c2[nH]c3ccc(C4CCN(CCC(C)(C)O)CC4)cc3c2C(C)C)cn(C)c(=O)c1C [Example 73, 5-(5-(1-(3-hydroxy-3-methylbutyl)piperidin-4-yl)-3-isopropyl-1H-indol-2-yl)-1,3,4-trimethylpyridin-2(1H)-one]	8 nM	3.3 nM	6070 nM
CNC(=O)CN1CCC(c2ccc3[nH]c(-c4cc(C)c(=O)n(C)c4)c(C(C)C)c3c2)CC1 [Example 117, 2-(4-(2-(1,5-dimethyl-6-oxo-1,6-dihydropyridin-3-yl)-3-isopropyl-1H-indol-5-yl)piperidin-1-yl)-N-methylacetamide]	2 nM	5.3 nM	14000 nM

Second part, the compound after the results:

IC50 (human TLR7)	IC50 (human TLR8)	IC50 (human TLR9)	Structure (SMILES)
4.5 nM	16.6 nM	1210 nM	CCCN1CCC(c2ccc3[nH]c(-c4cc(-c5cccc(OC)c5)c(=O)n(C)c4)c(C(C)C)c3c2)CC1 [Example 340, 5-(3-isopropyl-5-(1-propylpiperidin-4-yl)-1H-indol-2-yl)-3-(3-methoxyphenyl)-1-methylpyridin-2(1H)-one]
61.3 nM	19 nM	4320 nM	Cc1nc(-c2[nH]c3ccc(C4CCN(C5CCOCC5)CC4)cc3c2C(C)C)cn(C)c1=O [Example 185, 5-(3-isopropyl-5-(1-(tetrahydro-2H-pyran-4-yl)piperidin-4-yl)-1H-indol-2-yl)-1,3-dimethylpyrazin-2(1H)-one]
8.4 nM	99.4 nM	4120 nM	CNC(=O)CN1CCC(c2ccc3[nH]c(-c4cc(C)c(=O)n(Cc5ccccc5)c4)c(C(C)C)c3c2)CC1 [Example 162, 2-(4-(2-(1-benzyl-5-methyl-6-oxo-1,6-dihydropyridin-3-yl)-3-isopropyl-1H-indol-5-yl)piperidin-1-yl)-N-methylacetamide]
2.2 nM	6.6 nM	3540 nM	Cc1cc(-c2[nH]c3ccc(C4CCN(C5CCC(C(C)(C)O)CC5)CC4)cc3c2C(C)C)cn(C)c1=O (stereo not drawn) [Example 267, 5-(5-(1-(4-(2-hydroxypropan-2-yl)cyclohexyl)piperidin-4-yl)-3-isopropyl-1H-indol-2-yl)-1,3-dimethylpyridin-2(1H)-one]
20.1 nM	42.6 nM	5030 nM	Cc1cc(-c2[nH]c3ccc(C4CCN(C)CC4)cc3c2C(C)C)cn(CC(F)(F)F)c1=O [Example 265, 5-(3-isopropyl-5-(1-methylpiperidin-4-yl)-1H-indol-2-yl)-3-methyl-1-(2,2,2-trifluoroethyl)pyridin-2(1H)-one]
10.2 nM	1.9 nM	3090 nM	Cc1cc(-c2[nH]c3ccc(C4CCN(CC(C)(C)O)CC4)cc3c2C(C)C)c(C)n(C)c1=O [Example 316, 5-(5-(1-(2-hydroxy-2-methylpropyl)piperidin-4-yl)-3-isopropyl-1H-indol-2-yl)-1,3,6-trimethylpyridin-2(1H)-one]
8.8 nM	7.1 nM	3360 nM	COCCn1cc(-c2[nH]c3ccc(C4CCN(C5CCOCC5)CC4)cc3c2C(C)C)cc(C)c1=O [Example 261, 5-(3-isopropyl-5-(1-(tetrahydro-2H-pyran-4-yl)piperidin-4-yl)-1H-indol-2-yl)-1-(2-methoxyethyl)-3-methylpyridin-2(1H)-one]
11.2 nM	23.1 nM	5510 nM	Cc1cc(-c2[nH]c3ccc(C4CCN(C5CCC(C(F)(F)F)CC5)CC4)cc3c2C(C)C)cn(C)c1=O (stereo not drawn) [Example 230, 5-(3-isopropyl-5-(1-(4-(trifluoromethyl)cyclohexyl)piperidin-4-yl)-1H-indol-2-yl)-1,3-dimethylpyridin-2(1H)-one]
